Assay results published in patent EP4603105A1, “PHARMACEUTICAL COMPOSITION CONTAINING CYCLIC COMPOUND HAVING SELECTIVE KRAS INHIBITORY EFFECT AGAINST HRAS AND NRAS” (CHUGAI SEIYAKU KABUSHIKI KAISHA, priority 2022, dated 2024).
*1 amine or outer side, *2 acyl side, *3 side chain or, on linkers, in order; H or OH if unused. Where a SMILES comes first, the peptide text is derived from it. Bridges are numbered along the chain shown (N, C = ends). [ ]: non-standard residue; d: D form. The star is where a group is joined. hPhe(3-Cl-4-CF3) = N[C@@H](CCc1ccc(C(F)(F)F)c(Cl)c1)C(=O)O; X34 = COCCN([C@@H](Cc1ccc(C(F)(F)F)cc1)C(=O)[*:2])[*:1]; NPrPhe(4-CF3) = CCCN[C@@H](Cc1ccc(C(F)(F)F)cc1)C(=O)O; X45 = CCCN([C@@H](CC1CCC(F)(F)CC1)C(=O)[*:2])[*:1]; NMeGly(cPent) = CN[C@H](C(=O)O)C1CCCC1; Pro(4,4-F2) = O=C(O)[C@@H]1CC(F)(F)CN1; Hyp = O=C(O)[C@@H]1C[C@@H](O)CN1; NMeD = CN[C@@H](CC(=O)O)C(=O)O; NMeL = CN[C@@H](CC(C)C)C(=O)O; Morpholide = C1CN(*)CCO1; NMeA = CN[C@@H](C)C(=O)O; dNMeA = CN[C@H](C)C(=O)O; Ac5c = NC1(C(=O)O)CCCC1; Aze = O=C(O)[C@@H]1CCN1; NEtG = CCNCC(=O)O; Sar = CNCC(=O)O

Tests used:
HRAS wild-type protein = HRAS wild-type protein (Homo sapiens, UniProt P01112); test: Binding to HRAS by surface plasmon resonance (SPR), KD and KD ratio to KRAS
HRAS wild-type protein, sequence (P01112 whole entry): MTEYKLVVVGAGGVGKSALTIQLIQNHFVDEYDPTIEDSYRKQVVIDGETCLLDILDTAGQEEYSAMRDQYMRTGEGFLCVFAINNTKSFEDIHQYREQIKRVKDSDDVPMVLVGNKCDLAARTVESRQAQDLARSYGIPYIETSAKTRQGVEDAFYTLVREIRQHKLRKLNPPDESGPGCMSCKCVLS
How it was run: (§1)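 Measured at 30°C: SPR with GDP-loaded, E. coli-expressed biotin-Avi RAS captured (~100–300 RU), ascending 75 s compound injections, HBS pH 7.4 with GDP, MgCl2, 4% DMSO. KD from 1:1 fit.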

[1] = target: GDP-bound NRAS wild-type protein (Homo sapiens, UniProt P01111); test: Binding to NRAS by surface plasmon resonance (SPR), KD and KD ratio to KRAS
GDP-bound NRAS wild-type protein, sequence (P01111 whole entry): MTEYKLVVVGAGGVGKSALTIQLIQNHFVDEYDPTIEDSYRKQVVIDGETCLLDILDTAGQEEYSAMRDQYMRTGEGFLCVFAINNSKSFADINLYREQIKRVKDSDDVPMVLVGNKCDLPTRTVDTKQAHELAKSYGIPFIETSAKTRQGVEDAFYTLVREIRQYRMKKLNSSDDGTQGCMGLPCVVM
How it was run: as §1

[2] = tested on: human lung cancer strain NCI-H441; format: cell-based
How it was run: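 Signal came from […] measured per well once the reagent was added. Beforehand, cells were cultured at 37°C and 5% carbon dioxide on a compound series serially diluted in dimethyl sulfoxide.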

[3] = ratio of KD for HRAS wild-type protein to KD for KRAS
[4] = ratio of KD for GDP-bound NRAS wild-type protein to KD for KRAS
[5] = ratio of the KD value with respect to HRAS wild-type protein to the KD value with respect to KRAS
[6] = ratio of the KD value with respect to GDP-bound NRAS wild-type protein to the KD value with respect to KRAS
[7] = ratio of KD value for HRAS wild-type protein to KD value for KRAS (SPR)
[8] = ratio of KD value for GDP-bound NRAS wild-type protein to KD value for KRAS (SPR)

| Structure (SMILES) | HRAS /KRAS (HRAS wild-type protein; [3]) | NRAS /KRAS [1, 4] | IC50 [2] [nM] | HRAS /KRAS (HRAS wild-type protein; [5]) | NRAS /KRAS [1, 6] | HRAS /KRAS (HRAS wild-type protein; [7]) | NRAS /KRAS [1, 8] |
| --- | --- | --- | --- | --- | --- | --- | --- |
| CCCN1C(=O)CN(C)C(=O)CN(C)C(=O)[C@H]([C@@H](C)CC)NC(=O)[C@H](CC(C)C)N(C)C(=O)C[C@@H](C(=O)N2CCOCC2)N(C)C(=O)[C@H](C2CCCC2)N(C)C(=O)C2(CCCC2)NC(=O)[C@@H]2CCCN2C(=O)[C@H](CCc2ccc(C(F)(F)F)c(Cl)c2)NC(=O)[C@@H](C)N(C)C(=O)[C@@H]1Cc1ccc(C(F)(F)F)cc1 [PP0148] ([NMeL]I[Sar][Sar][NPrPhe(4-CF3)][dNMeA][hPhe(3-Cl-4-CF3)]P[Ac5c][NMeGly(cPent)][NMeD]-Morpholide; lactam N-11) | B (a compound having 3 or more and less than 10 is denoted as B) | B (a compound having 3 or more and less than 10 is denoted as B) | 38 | – | – | – | – |
| CC[C@H](C)[C@@H]1NC(=O)[C@H](CC(C)C)N(C)C(=O)C[C@@H](C(=O)N2CCOCC2)N(C)C(=O)[C@H](C2CCCC2)N(C)C(=O)C2(CCCC2)NC(=O)[C@@H]2CCCN2C(=O)[C@H](CCc2ccc(C(F)(F)F)c(Cl)c2)NC(=O)CN(C)C(=O)[C@H](Cc2ccc(C(F)(F)F)cc2)N(CCOC)C(=O)[C@@H]2CCN2C(=O)[C@H](C)N(C)C1=O [PP0118] ([NMeL]I[NMeA][Aze][X34][Sar][hPhe(3-Cl-4-CF3)]P[Ac5c][NMeGly(cPent)][NMeD]-Morpholide; lactam N-11) | C (A compound having a KD ratio of 0.1 or more and less than 3 is denoted as C) | C (A compound having a KD ratio of 0.1 or more and less than 3 is denoted as C) | 6 | – | – | – | – |
| CCO[C@@H]1C[C@H]2C(=O)NC3(CCC3)C(=O)N(C)[C@@H](C(CC)CC)C(=O)N(C)[C@H](C(=O)N3CCCCC3)CC(=O)N(C)[C@H]3CCC/C=C/c4ccc(cc4)C[C@@H](C(=O)N(C)CC(=O)N[C@@H](CCc4cc(F)c(C(F)(F)F)c(F)c4)C(=O)N2C1)N1CC/C=C\C[C@@H](C1=O)N(C)C(=O)CN(C1CC1)C(=O)[C@H]([C@@H](C)CC)NC3=O [PP2956] | A (a compound having 10 or more and less than 20 is denoted as A) | AA (a compound having 20 or more is denoted as AA) | 27.8 | – | – | – | – |
| CCCN(C)C(=O)[C@@H]1CC(=O)N(C)[C@@H](CCOC)C(=O)N[C@@H]([C@@H](C)CC)C(=O)N(C)CC(=O)N(C)[C@H]2C/C=C\CCN(C2=O)[C@@H](Cc2ccc(C(F)(F)F)cc2)C(=O)N(C)CC(=O)N[C@@H](CCc2ccc(C(F)(F)F)c(OC)c2)C(=O)N2C[C@H](OCC)C[C@H]2C(=O)NC2(CCC2)C(=O)N(C)[C@@H](C2CCCC2)C(=O)N1C [PP2018] | – | – | 5.3 | B (a compound having 3 or more and less than 10 is denoted as B) | A (a compound having 10 or more and less than 20 is denoted as A) | – | – |
| C#CC[C@H]1C(=O)N[C@@H]([C@@H](C)CC)C(=O)N(C)CC(=O)N(C)[C@H]2CCCCCN(C2=O)[C@@H](Cc2ccc(C(F)(F)F)cc2)C(=O)N(C)CC(=O)N[C@@H](CCc2cc(F)c(C(F)(F)F)c(F)c2)C(=O)N2C[C@H](OCC)C[C@H]2C(=O)NC2(CCC2)C(=O)N(C)[C@@H](C2CCCC2)C(=O)N(C)[C@H](C(=O)N(C)C)CC(=O)N1C [PP0666] | – | – | 19.1 | B (a compound having 3 or more and less than 10 is denoted as B) | B (a compound having 3 or more and less than 10 is denoted as B) | – | – |
| CCCN(C)C(=O)[C@@H]1CC(=O)N(C)[C@@H](CC(F)F)C(=O)N[C@@H]([C@@H](C)CC)C(=O)N(C)CC(=O)N(C)[C@H]2C/C=C\CCN(C2=O)[C@@H](Cc2ccc(C(F)(F)F)cc2)C(=O)N(C)CC(=O)N[C@@H](CCc2cc(F)c(C(F)(F)F)c(F)c2)C(=O)N2C[C@H](OCC)C[C@H]2C(=O)NC2(CCC2)C(=O)N(C)[C@@H](C2CCCC2)C(=O)N1C [PP1700] | – | – | 3.6 | – | – | A (a compound having 10 or more and less than 20 is denoted as A) | A (a compound having 10 or more and less than 20 is denoted as A) |
| CCCN1C(=O)[C@@H]2CCN2C(=O)[C@H](C)N(C)C(=O)[C@H]([C@@H](C)CC)NC(=O)[C@H](CC(C)C)N(C)C(=O)C[C@@H](C(=O)N2CCOCC2)N(C)C(=O)[C@H](C2CCCC2)N(C)C(=O)C2(CCCC2)NC(=O)[C@@H]2CCCN2C(=O)[C@H](CCc2ccc(C(F)(F)F)c(Cl)c2)NC(=O)CN(C)C(=O)[C@@H]1CC1CCC(F)(F)CC1 [PP0527] ([NMeL]I[NMeA][Aze][X45][Sar][hPhe(3-Cl-4-CF3)]P[Ac5c][NMeGly(cPent)][NMeD]-Morpholide; lactam N-11) | – | – | 5.7 | C (A compound having a KD ratio of 0.1 or more and less than 3 is denoted as C) | C (A compound having a KD ratio of 0.1 or more and less than 3 is denoted as C) | – | – |
| CCO[C@@H]1C[C@H]2C(=O)NC3(CCC3)C(=O)N(C)[C@@H](C3CCCC3)C(=O)N(CC)[C@H](C(=O)N3CCOCC3)CC(=O)N(C)[C@@H](CC)C(=O)N[C@@H]([C@@H](C)CC)C(=O)N(C)CC(=O)N(C)[C@H]3CCCCCN(C3=O)[C@@H](Cc3ccc(C(F)(F)F)cc3)C(=O)N(C)CC(=O)N[C@@H](CCc3cc(F)c(C(F)(F)F)c(F)c3)C(=O)N2C1 [PP0944] | A (a compound having 10 or more and less than 20 is denoted as A) | A (a compound having 10 or more and less than 20 is denoted as A) | 344 | – | – | – | – |
| CCC[C@H]1C(=O)N[C@@H]([C@@H](C)CC)C(=O)N(C2CC2)CC(=O)N(C)[C@H]2C/C=C\CCN(C2=O)[C@@H](Cc2ccc(C)cc2)C(=O)N(C)CC(=O)N[C@@H](CCc2cc(C)c(C(F)F)c(F)c2)C(=O)N2C[C@H](OCC)C[C@H]2C(=O)NC2(CC(C)(C)C2)C(=O)N(C)[C@@H](C2CCCC2)C(=O)N(C)[C@H](C(=O)N(C)C)CC(=O)N1C [PP2874] | A (a compound having 10 or more and less than 20 is denoted as A) | A (a compound having 10 or more and less than 20 is denoted as A) | 44 | – | – | – | – |
| CCCN1C(=O)CN(C)C(=O)CN(CC)C(=O)[C@H]([C@@H](C)CC)NC(=O)[C@H](CC(C)C)N(C)C(=O)C[C@@H](C(=O)N2CCOCC2)NC(=O)[C@H](C2CCCC2)N(C)C(=O)C2(CCCC2)NC(=O)[C@@H]2CC(F)(F)CN2C(=O)[C@H](CCc2ccc(C(F)(F)F)c(Cl)c2)NC(=O)CN(C)C(=O)[C@@H]1Cc1ccc(C(F)(F)F)cc1 [PP0333] ([NMeL]I[NEtG][Sar][NPrPhe(4-CF3)][Sar][hPhe(3-Cl-4-CF3)][Pro(4,4-F2)][Ac5c][NMeGly(cPent)]D-Morpholide; lactam N-11) | C (A compound having a KD ratio of 0.1 or more and less than 3 is denoted as C) | B (a compound having 3 or more and less than 10 is denoted as B) | 41.6 | – | – | – | – |
| CC[C@H](C)[C@@H]1NC(=O)[C@H](CC)N(C)C(=O)C[C@@H](C(=O)N(C)C)N(C)C(=O)[C@H](C2CCCC2)N(C)C(=O)C2(CCC2)NC(=O)[C@@H]2CCCCN2C(=O)[C@H](CCc2cc(F)c(C(F)(F)F)c(F)c2)NC(=O)CN(C)C(=O)[C@H](Cc2ccc(C(F)(F)F)cc2)N2CCCC[C@@H](C2=O)N(C)C(=O)CN(C)C1=O [PP0658] | – | – | 10.3 | B (a compound having 3 or more and less than 10 is denoted as B) | C (A compound having a KD ratio of 0.1 or more and less than 3 is denoted as C) | – | – |
| CC[C@H](C)[C@@H]1NC(=O)[C@H](CC)N(C)C(=O)C[C@@H](C(=O)N(C)C)N(CC)C(=O)[C@H](C2CCCC2)N(C)C(=O)C2(CCC2)NC(=O)[C@@H]2C[C@@H](N3CCC(F)(F)CC3)CN2C(=O)[C@H](CCc2cc(F)c(C(F)(F)F)c(F)c2)NC(=O)CN(C)C(=O)[C@H](Cc2ccc(C(F)(F)F)cc2)N2CCCC[C@@H](C2=O)N(C)C(=O)CN(C)C1=O [PP0733] | – | – | 220 | B (a compound having 3 or more and less than 10 is denoted as B) | B (a compound having 3 or more and less than 10 is denoted as B) | – | – |
| CCCN1C(=O)CN(C)C(=O)CNC(=O)[C@H]([C@@H](C)CC)NC(=O)[C@H](CC(C)C)N(C)C(=O)C[C@@H](C(=O)N2CCOCC2)N(C)C(=O)[C@H](C2CCCC2)N(C)C(=O)C2(CCCC2)NC(=O)[C@@H]2C[C@@H](OCC)CN2C(=O)[C@H](CCc2ccc(C(F)(F)F)c(Cl)c2)NC(=O)CN(C)C(=O)[C@@H]1Cc1ccc(C(F)(F)F)cc1 [PP0396] ([NMeL]IG[Sar][NPrPhe(4-CF3)][Sar][hPhe(3-Cl-4-CF3)][Hyp](Et)[Ac5c][NMeGly(cPent)][NMeD]-Morpholide; lactam N-11) | – | – | 0.9 | C (A compound having a KD ratio of 0.1 or more and less than 3 is denoted as C) | B (a compound having 3 or more and less than 10 is denoted as B) | – | – |
| CCO[C@@H]1C[C@H]2C(=O)N(C)C3(CCC3)C(=O)N(C)[C@@H](C3CCCC3)C(=O)N(C)[C@H](C(=O)N(C)C)CC(=O)N(C)[C@@H](CC)C(=O)N[C@@H]([C@@H](C)CC)C(=O)N(C)CC(=O)N(C)[C@H]3C/C=C\CCN(C3=O)[C@@H](Cc3ccc(C)cc3)C(=O)N(C)CC(=O)N[C@@H](CCc3cc(F)c(C(F)(F)F)c(F)c3)C(=O)N2C1 [PP1781] | – | – | 2.1 | – | – | B (a compound having 3 or more and less than 10 is denoted as B) | A (a compound having 10 or more and less than 20 is denoted as A) |
